Data taken from US8168596B2, “Use of cycloartane compounds for treating arthritis” (NuLiv Holding Inc., priority 2008, dated 2012).

How the values were obtained:
MMP1 = assay: Western blotting of MMP1 protein expression induced by PMA in SW1353 cells (Example 2); type: cell-based, human; details: for level of MMP1 protein expression (group without AS4 treatment set as 1): then PMA 100 ng/mL 24 h, culture medium
Protocol: Alternatively, the control group was treated with 0.1% dimethyl sulfoxide (DMSO). Phorbol myristate acetate (PMA; Sigma, St. Louis, Mo.) at a concentration of 100 ng/mL was then added into each well and the cells were incubated for 24 hours. The culture medium was collected for western blotting analysis.
Western blotting analysis was carried out based on the following procedure. Cells were washed and lysed in 0.2 mL of lysis buffer (1% NP-40, 50 mM Tris-HCl, pH 7.4, 180 mM NaCl, 1 mM EDTA, 1 mM PMSF, 1 mM NaF, 10 mM Na3VO4) for 30 min at 4° C. After centrifugation at 17500 g for 15 min, the supernatants of cell lysate were collected. Protein concentrations of the samples were measured using the bicinchoninic acid (BCA) protein assay kit according to the manufacturer's protocol (Pierce, Rockford, Ill., USA). Equal amounts of protein samples of concentrated conditioned medium (100 μg) or cell lysate supernatants (50 μg) were mixed with an appropriate volume of 4×SDS sampling buffer and separated on a 8% SDS-PAGE gel. The protein bands separated on the SDS-PAGE gel were blotted onto a polyvinylidene fluoride (PVDF) membrane. The blotted PVDF membrane was washed twice and blocked in freshly prepared Tris-buffered saline (TBS) containing 0.1% Tween-20 and 7% skim milk (TBST) for 2 hours at room temperature. The PVDF membrane was then incubated with a primary antibody against MMP1 protein (Santa Cruz Biotechnology, Santa Cruz, Calif.) for 18 hours at 4° C. Horseradish peroxidase-conjugated anti-goat antibody was used as the secondary antibody. Signals were visualized by an enhanced chemiluminescence kit (Clonetech, Palo Alto, Calif., USA) followed by exposure to X-ray films.
In another testing, the SW1353 cells were treated with 0.1 μM astragaloside IV (AS4), followed by incubation for 24 hours. PMA at a concentration of 100 ng/mL was then added into each well. The culture medium was collected after 6, 12, 18 and 24 hours of PMA treatment for western blotting analysis.

MMP-1 = assay: Zymography of MMP-1 from pre-treated SW1353 cells; type: cell-based, human; details: PMA-pre-treated SW1353; 0.1 μM, 24 h
Protocol: At the beginning of the experiment, the cells were pre-treated with 100 ng/mL PMA or 10 ng/mL IL-1β for 24 hours. The cells were then treated with 0.1 μM Dexamethasone, various astragaloside compounds (0.1 μM) or extracts of Astragalus membranaceous (1 μg/mL) at indicated dosages for another 24 hours. For control sample, 0.1% DMSO was used as a negative control for these experiments. The conditioned culture mediums were then centrifuged, 2-fold concentrated and collected for assay of collagens or MMPs secreted into the culture medium.
The proteolytic activities of MMPs from SW1353 cells were measured essentially as described previously (Circ Res, 1999; 85:906-911). The cells were lysed in lysis buffer (1% Triton X-100, 50 mM Tris-Cl, pH 7.4, 180 mM NaCl, 1 mM EDTA). The samples were measured for their protein concentration using the bicinchoninic acid (BCA) protein assay kit as described. Samples of concentrated conditioned medium and cell lysates were mixed with non-reducing electrophoresis loading buffer and subjected to electrophoresis under non-reducing conditions. The electrophoresis was carried out on a 10% SDS-PAGE co-polymerized with 2 mg/mL gelatin or casein (Sigma, St. Louis, Mo. USA). For zymographic analysis of pro-MMP-2 and activated MMP-2, the total 20 μg of culture medium were used for electrophoresis. Following electrophoresis, renaturation of the proteins was achieved by incubating the gels twice in 25 g/L Triton X-100 at room temperature for 10 min. Subsequently the gels were incubated in 50 mM Tris-HCl, pH 7.5 containing 0.2 M NaCl, 0.02% Brij35 and 10 mM CaCl2 at 37° C. for 18 hours. After the gels were stained with Coomassie Brilliant Blue R-250 and destained, zones of proteolytic activities became visible as transparent bands in the stained gel. In order to obtain higher sensitivity, the gels were further destained in a solution of 1% Triton X-100 (1 to 2 hours). This procedure increased the signal-to-noise ratio, allowing the visualization of faint gelatinase bands at 92 kDa, 125 kDa and greater than 200 kDa. Zymograms were read using a Molecular Dynamics (Sunnyvale, Calif., USA) computing laser densitometer with Image Quant software.

`CC(C)(O)[C@@H]1CC[C@](C)([C@H]2[C@@H](O)C[C@@]3(C)[C@@H]4C[C@H](O[C@@H]5O[C@H](CO)[C@@H](O)[C@H](O)[C@H]5O)[C@H]5C(C)(C)[C@@H](O[C@@H]6OC[C@@H](O)[C@H](O)[C@H]6O)CC[C@@]56C[C@@]46CC[C@]23C)O1` [AS4, Astragaloside IV] was tested, and the “level of MMP1 protein expression (group without AS4 treatment set as 1)” value (shortened to “level … (group without AS4 treatment set as 1)”) (MMP1; AS4 0.01 μM 24 h) was 0.77, the “level … (group without AS4 treatment set as 1)” value (MMP1; AS4 0.1 μM 24 h) was 0.64 and the “level of expression of MMP1 protein at different time points, compared with only PMA treatment” value (MMP1; AS4 0.1 μM 24 h, then PMA 100 ng/mL, 6, 12, 18 and 24 hours) was “inhibited”. For the same compound, the “level … (group without AS4 treatment set as 1)” value (MMP1; AS4 1 μM 24 h) was 0.55 and the “MMP-1, Zymography, relative to Ctrl 1.00” value (MMP-1) was 0.68.
